Assay results published in ChEMBL document CHEMBL4184097, “Design, synthesis, and evaluation of novel inhibitors for wild-type human serine racemase” (Bioorg Med Chem Lett, 2018).
pIC50: −log10 of the molar value.

These molecules were tested against T1, Serine racemase (Homo sapiens) (UniProt Q9GZT4) (assay: Inhibition of wild-type serine racemase (unknown origin) assessed as residual activity by measuring D-serine level at 1 mM using […] as substrate and PLP as co-factor pretreated for 30 mins followed by substrate and co-factor addition measured after 30 mins relative to control).
T1 sequence (whole entry): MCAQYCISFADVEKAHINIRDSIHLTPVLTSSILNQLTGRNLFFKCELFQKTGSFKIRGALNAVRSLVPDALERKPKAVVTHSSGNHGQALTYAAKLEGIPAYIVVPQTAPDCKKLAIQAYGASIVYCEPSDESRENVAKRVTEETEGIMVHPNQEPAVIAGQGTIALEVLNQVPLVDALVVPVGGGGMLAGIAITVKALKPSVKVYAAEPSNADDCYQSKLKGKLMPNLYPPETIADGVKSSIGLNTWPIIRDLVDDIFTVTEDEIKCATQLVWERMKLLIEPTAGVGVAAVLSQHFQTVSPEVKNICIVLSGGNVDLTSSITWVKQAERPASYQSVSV

Compared with CC(=O)Nc1ccc(NC(=O)COC(=O)CCSc2ccccc2Cl)cc1, CC(=O)Nc1ccc(NC(=O)COC(=O)CCSc2ccccc2F)cc1 is lower in Activity: 84% for the first, 55% for the second.

First: COc1ccccc1CCCC(=O)CCC(=O)Nc1ccc(NC(C)=O)cc1
Second: COc1ccccc1CCCC(=O)OCC(=O)Nc1ccc(NC(C)=O)cc1
The Activity of the first is higher: 100% for the first, 76% for the second.

First: COc1ccccc1SCCC(=O)NC(C)C(=O)Nc1ccc(NC(C)=O)cc1 (centres undefined)
Second: CC(=O)Nc1ccc(NC(=O)C(C)NC(=O)CCSc2ccccc2Cl)cc1 (centres undefined)
The Activity of the first is higher: 92% for the first, 52% for the second.

CC(OC(=O)CCSc1ccccc1Cl)C(=O)Nc1ccccc1 (centres undefined) and CCc1ccccc1NC(=O)C(C)OC(=O)CCSc1ccccc1Cl (centres undefined) are the same in Activity: 91% for the first, 91% for the second.

CC(=O)Nc1ccc(NC(=O)CNC(=O)CCSc2ccccc2Cl)cc1 and COc1ccccc1SCCC(=O)NCC(=O)Nc1ccc(NC(C)=O)cc1 are the same in Activity: 100% for the first, 100% for the second.

First: CC(=O)Nc1ccc(NC(=O)COC(=O)CCSc2cccc(Cl)c2)cc1
Second: COc1cccc(SCCC(=O)OCC(=O)Nc2ccc(NC(C)=O)cc2)c1
The Activity of the first is higher: 100% for the first, 61% for the second.

First: CC(=O)Nc1ccc(NC(=O)C(C)OC(=O)CCSc2ccccc2Cl)cc1 (centres undefined)
Second: COc1ccccc1SCCC(=O)OCC(=O)Nc1ccc(NC(C)=O)cc1
The Activity of the first is higher: 49% for the first, 36% for the second.

Compared with CC(=O)Nc1ccc(NC(=O)COC(=O)CCOc2ccccc2F)cc1, CC(=O)Nc1ccc(NC(=O)COC(=O)CCSc2ccccc2)cc1 is lower in Activity: 88% for the first, 72% for the second.

Going from COc1ccc(SCCC(=O)OCC(=O)Nc2ccc(NC(C)=O)cc2)cc1 to CC(=O)c1ccc(NC(=O)NNC(=O)Cc2ccc(Cl)c(Cl)c2)cc1, the Activity falls from 65% to 56%.

What follows are molecules tested against T2, Serine racemase (Homo sapiens, UniProt Q9GZT4) (assay: Inhibition of wild-type serine racemase (unknown origin) assessed as residual activity by measuring D-serine level using […] as substrate and PLP as co-factor pretreated for 30 mins followed by substrate and co-factor addition measured after 30 mins).
T2 sequence (Q9GZT4 whole entry): T1 sequence (whole entry)

Molecule COc1ccccc1SCCC(=O)OCC(=O)Nc1ccc(NC(C)=O)cc1 has a pIC50 of 3.08.
